# Assay results from US20140186260A1, “RADIOPHARMACEUTICAL AND PHARMACEUTICAL KIT” (NIHON MEDI-PHYSICS CO., LTD., priority 2012, published 2014).
# Structures can show the parent of a compound that is named as a salt. Where two headings read alike, the source gives them in different places.
# Legend:
# HT29 tumor-bearing mice [1] = experiment: Effect of D-penicillamine on PET imaging of ^64Cu-ATSM in HT29 tumor-bearing mouse; assay type: in vivo
# Experimental: The distribution of radioactivity was imaged using a PET device specific for small animals (Inveon, from Siemens Medical Systems, Inc.) 30 minutes and 2, 3, 4, 5, 6, 7, 8, and 24 hours after the administration of ^64Cu-ATSM. Image acquisition was performed for 5 minutes from each time point, and the image was reconstructed by a 3-dimensional maximum a posteriori probability method (3D-MAP method) using Inveon Acquisition Workplace Software (from Siemens Medical Systems, Inc.). As a control, PET imaging was also similarly performed in mice receiving the administration of saline in place of D-penicillamine.
# CD133-positive cells = conditions: Yoshii et al. 2010; cited from earlier work
# tumor = conditions: Yoshii et al. 2011; cited from earlier work
# [2] = ^64Cu complex exchange reaction between ^64Cu-ATSM and chelating agent in mouse plasma (TLC); conditions: 37° C., chelating agent 10 mg/mL, ^64Cu-ATSM 6 μCi/mL, 5, 30 or 60 minutes
# Experimental: Blood collected from BALB/c nude mice (male, 6-week old, about 25 g in body weight, obtained from Japan SLC, Inc.) under diethyl ether anesthesia was centrifuged (high-speed cooling centrifuge Model MX-105, from Tomy Co., Ltd., 3,000 rpm, 10 minutes) to provide plasma. In the mouse plasma maintained at 37° C. was mixed each of D-penicillamine, dimercaprol, trientine hydrochloride, and deferoxamine mesylate to a final concentration of 10 mg/mL, to which ^64Cu-ATSM was then added to a final concentration of 6 μCi/mL. After maintaining each of the mixtures at 37° C. for 5 minutes, 30 minutes, or 60 minutes, methanol cooled at 4° C. in advance was added in an equal amount to the plasma thereto, which was thoroughly mixed and centrifuged (as above), followed by analyzing the supernatant by a TLC method.
# HT29 tumor-bearing mice [3] = experiment: Effect of D-penicillamine on in vivo pharmacokinetics of ^64Cu-ATSM in HT29 tumor-bearing mouse (1): before/after dosing; conditions: vs saline
# HT29 tumor-bearing mice [4] = experiment: Effect of D-penicillamine on in vivo pharmacokinetics and excretion of ^64Cu-ATSM in HT29 tumor-bearing mouse (2): dose dependence; conditions: D-penicillamine 100, 300 or 500 mg/kg oral 1 hour after ^64Cu-ATSM, vs saline
# HT29 tumor-bearing mice [5] = experiment: Effect of D-penicillamine on in vivo pharmacokinetics and excretion of ^64Cu-ATSM in HT29 tumor-bearing mouse (3): repeated administration; conditions: D-penicillamine 100 mg/kg oral 3 times at 1-hour or 2-hour intervals, vs saline
# Experimental: 185 kBq (5 μCi) of ^64Cu-ATSM was administered through the tail vein of the tumor-bearing mice prepared by the same method as Example 3; D-penicillamine was orally administered to 100 mg/kg 1 hour thereafter; and D-penicillamine was then orally administered to 100 mg/kg 2 times at 1-hour or 2-hour intervals. Saline was administered to a control group in place of D-penicillamine. Thereafter, radioactivity in each organ, urine, and feces was measured as Example 4; the radioactivity distributed in each organ was expressed as % ID/g tissue, and the excretion of radioactivity into urine and feces was expressed as % ID.
# HT29 tumor-bearing mice [6] = experiment: Effect of repeated D-penicillamine with or without glycerin enema on in vivo pharmacokinetics and excretion of ^64Cu-ATSM in HT29 tumor-bearing mouse (4); conditions: D-penicillamine 100 mg/kg oral at 1, 3 and 5 hours after ^64Cu-ATSM, vs saline
# Excerpt: FIGS. 12A, 12B and 12C were expressed in average and standard deviation for 4 mice.
# HT29 tumor-bearing mice [7] = experiment: Effect of Ca-DTPA on in vivo pharmacokinetics of ^64Cu-ATSM in HT29 tumor-bearing mouse (Comparative Example 1); conditions: Ca-DTPA 150 mg/kg i.v. 10 minutes after ^64Cu-ATSM; 1 and 2 hours; vs saline
# HT29 tumor-bearing mice [8] = conditions: trientine hydrochloride 500 mg/kg oral 1 hour after ^64Cu-ATSM; vs saline
# Experimental: Human large bowel cancer-derived HT29 cells were purchased from ATCC and proliferated for use. The HT29 tumor-bearing model was prepared by implanting 1×10^7 HT29 cells subcutaneously in the femoral region of BALB/c nude mice (male, 6-week old, about 25 g in body weight, obtained from Japan SLC, Inc.), and used for the experiment 3 weeks after implantation. The tumor-bearing mice were fasted from 16 hours or more before the start of the experiment. 185 kBq (5 μCi) of ^64Cu-ATSM was administered through the tail vein of the HT29 tumor-bearing mice, and D-penicillamine was orally administered to 500 mg/kg 10 minutes therebefore or 1 hour thereafter. Saline was administered to a control group in place of D-penicillamine. They were sacrificed by blood removal from the heart under diethyl ether anesthesia 1, 2, and 3 hours after the administration of ^64Cu-ATSM; each tissue was removed and weighed; and radioactivity was further measured using an automatic gamma counter (Model: 1480 Wizard 3, from PerkinElmer Co., Ltd.). The radioactivity distributed in each organ was expressed as radioactivity per g of organ (% ID (Injected Dose)/g tissue) when the amount administered is set to 100%. 185 kBq (5 μCi) of ^64Cu-ATSM was administered through the tail vein of the HT29 tumor-bearing mice prepared by the same method as Example 3, and D-penicillamine was orally administered to 100, 300, or 500 mg/kg 1 hour thereafter. Saline was administered to a control group in place of D-penicillamine. They were sacrificed by blood removal from the heart under diethyl ether anesthesia 2, 4, 6, 16, and 24 hours after the administration of ^64Cu-ATSM; each tissue was removed and weighed; and radioactivity was further measured. The excreted urine and feces were recovered, and radioactivity was similarly measured. The radioactivity distributed in each organ was expressed as ID/g tissue. The excretion of radioactivity into each of urine and feces was expressed as radioactivity (% ID) when the amount administered was set to 100%. 185 kBq (5 μCi) of ^64Cu-ATSM was administered through the tail vein of the tumor-bearing mice prepared by the same method as Example 3, and trientine hydrochloride was orally administered to 500 mg/kg 1 hour thereafter. Saline was administered to a control group in place of trientine hydrochloride. Thereafter, radioactivity in each organ, urine, and feces was measured as Example 4; the radioactivity distributed in each organ was expressed as % ID/g tissue, and the excretion of radioactivity into urine and feces was expressed as % ID.
# [9] = D-penicillamine 300 mg/kg oral 1 hour after 37 MBq ^64Cu-ATSM, vs saline
smiles,measurement,setting,value
"CN=C([S-])N/N=C(C)/C(C)=N/NC([S-])=NC.[64Cu+2] [^64Cu-ATSM, radioactive diacetyl-bis(N4-methylthiosemicarbazone) copper complex]",radioactivity accumulation in the liver after ^64Cu-ATSM (PET),"HT29 tumor-bearing mice [1]; 37 MBq ^64Cu-ATSM i.v., before chelating agent",radioactivity accumulation in the liver was once observed
same,accumulation in CD133-positive cells,CD133-positive cells,accumulates in CD133-positive cells
same,amount of CD133-positive cells in tumor,tumor,decreased the amount of CD133-positive cells in tumor
same,tumor size,tumor,shrink the tumor
OCC(S)CS (stereo not drawn) [dimercaprol],^64Cu complex exchange reaction from ^64Cu-ATSM to a highly polar complex,[2],"Cu-ATSM and unidentified metabolites or degradation products rapidly disappeared, and the origin component increased"
CC(C)(S)[C@@H](N)C(=O)O [D-penicillamine],^64Cu complex exchange reaction from ^64Cu-ATSM to a highly polar complex,[2],"Cu-ATSM and unidentified metabolites or degradation products rapidly disappeared, and the origin component increased"
same,uptake of radioactivity into the tumor,HT29 tumor-bearing mice [3]; D-penicillamine 500 mg/kg oral 10 minutes before ^64Cu-ATSM,decreased the uptake of radioactivity into the tumor
same,uptake of ^64Cu-ATSM into the tumor,HT29 tumor-bearing mice [3]; D-penicillamine 500 mg/kg oral 1 hour after ^64Cu-ATSM,did not affect
same,uptake of radioactivity into the liver,"HT29 tumor-bearing mice [3]; D-penicillamine 500 mg/kg oral, 10 minutes before or 1 hour after ^64Cu-ATSM i.v., 1, 2, 3 hours",markedly decreased
same,uptake of radioactivity into the liver,HT29 tumor-bearing mice [4]; 2-24 hours,dose-dependently decreased
same,excretion of radioactivity into feces,HT29 tumor-bearing mice [4],less affected
same,excretion of radioactivity into urine,HT29 tumor-bearing mice [4],statistically significantly promoted
same,uptake of radioactivity into the tumor,HT29 tumor-bearing mice [4],not statistically significantly affected
same,uptake of radioactivity into the liver,HT29 tumor-bearing mice [5]; from 1 hour after ^64Cu-ATSM,decreased
same,excretion of radioactivity into feces,HT29 tumor-bearing mice [5],less affected
same,excretion of radioactivity into urine,HT29 tumor-bearing mice [5],statistically significantly promoted
same,uptake of radioactivity into the tumor,HT29 tumor-bearing mice [5],not statistically significantly affected
same,accumulation of radioactivity in the bladder (PET),HT29 tumor-bearing mice [1]; [9],increase the accumulation of radioactivity in the bladder
same,accumulation of radioactivity in the liver (PET),HT29 tumor-bearing mice [1]; [9],decrease the accumulation of radioactivity in the liver
same,accumulation of radioactivity in the tumor (PET),HT29 tumor-bearing mice [1]; [9],not affected
same,uptake of radioactivity into the liver,"HT29 tumor-bearing mice [6]; 6, 16, 24 hours",decreased
same,excretion of radioactivity into urine,HT29 tumor-bearing mice [6],statistically significantly promoted
same,uptake of radioactivity into the tumor,HT29 tumor-bearing mice [6],not statistically significantly affected
O=C([O-])CN(CCN(CC(=O)[O-])CC(=O)[O-])CCN(CC(=O)[O-])CC(=O)[O-].[Ca+2].[Na+].[Na+].[Na+] [Ca-DTPA],uptake of radioactivity into each organ and tumor,HT29 tumor-bearing mice [7],statistically little affected
CC(=O)N(O)CCCCCNC(=O)CCC(=O)N(O)CCCCCNC(=O)CCC(=O)N(O)CCCCCN [deferoxamine mesylate],^64Cu complex exchange reaction from ^64Cu-ATSM to a highly polar complex,[2],No complex exchange reaction
NCCNCCNCCN [trientine hydrochloride],^64Cu complex exchange reaction from ^64Cu-ATSM to a highly polar complex,[2],the effect thereof was relatively weak
same,excretion of radioactivity into feces,HT29 tumor-bearing mice [8],less affected
same,excretion of radioactivity into urine,HT29 tumor-bearing mice [8],statistically significantly promoted
same,uptake of radioactivity into the liver,HT29 tumor-bearing mice [8],tended to be decreased
same,uptake of radioactivity into the tumor,HT29 tumor-bearing mice [8],not statistically significantly affected
